In patent US20250215030A1, “STAT MODULATORS AND USES THEREOF” (Recludix Pharma, Inc., priority 2022, published 2025) one finds IC50 data, which are given here for 15 compounds.

In experiment [1] the target is T1, Recombinant STAT3 protein (STAT3(G127-I722)) (Homo sapiens, UniProt P40763).
T1 construct: STAT3(G127-I722)
The experiment can be described thus: STAT3 Fluorescence Polarization (FP) Assay. To be noted: STAT3(G127-I722) 25 nM, probe 5-FAM-GpYLPQTV-NH2 2 nM, 45-minute incubation. The format is binding. In short, it runs like this:
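STAT3(G127-I722) at 25 nM and 5-FAM-GpYLPQTV-NH2 probe at 2 nM in HEPES pH 7.4 buffer with NaCl, EDTA, Tween 20, DTT; 1% DMSO. FP read after 45 min at room temperature; IC50 by nonlinear regression of mP vs log concentration, binned A ≤100 nM to D >10 μM.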
For orientation: Polarisation of emitted light reports the rotation of a fluorescent probe.

In experiment [2] the target is T2, Recombinant STAT6 protein (STAT6(W123-T658)) (Homo sapiens, UniProt P42226).
T2 construct: STAT6(W123-T658)
T2 sequence (P42226 123-658): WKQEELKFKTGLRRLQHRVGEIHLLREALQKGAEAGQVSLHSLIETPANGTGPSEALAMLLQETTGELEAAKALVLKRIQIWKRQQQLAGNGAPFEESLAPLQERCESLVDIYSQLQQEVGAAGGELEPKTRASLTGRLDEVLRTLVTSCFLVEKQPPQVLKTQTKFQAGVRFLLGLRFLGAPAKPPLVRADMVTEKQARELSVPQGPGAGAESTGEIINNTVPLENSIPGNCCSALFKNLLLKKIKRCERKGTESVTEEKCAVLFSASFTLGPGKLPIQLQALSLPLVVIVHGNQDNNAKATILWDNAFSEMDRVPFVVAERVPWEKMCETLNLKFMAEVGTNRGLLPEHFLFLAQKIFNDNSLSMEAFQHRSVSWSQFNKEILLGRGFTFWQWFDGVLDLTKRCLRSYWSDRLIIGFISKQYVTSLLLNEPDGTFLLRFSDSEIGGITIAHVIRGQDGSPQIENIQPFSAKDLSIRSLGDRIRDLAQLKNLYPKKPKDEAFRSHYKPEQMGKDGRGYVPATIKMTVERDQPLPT
The experiment can be described thus: STAT6 Fluorescence Polarization (FP) Assay. The format is binding. Conditions: STAT6(W123-T658) 250 nM, probe 5-FAM-ApYKPFQDLI-NH2 2 nM, 45-minute incubation. The essentials: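 STAT6 (W123-T658) at 250 nM mixed with 2 nM 5-FAM-ApYKPFQDLI-NH2 probe in HEPES pH 7.4 buffer with DTT and Tween 20, 1% DMSO final. Polarization read after 45 min at room temperature; IC50 by nonlinear regression of mP versus log concentration, reported in bins A–D.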

Molecules are shown by their SMILES.

T1 sequence (P40763 127-722, species assumed): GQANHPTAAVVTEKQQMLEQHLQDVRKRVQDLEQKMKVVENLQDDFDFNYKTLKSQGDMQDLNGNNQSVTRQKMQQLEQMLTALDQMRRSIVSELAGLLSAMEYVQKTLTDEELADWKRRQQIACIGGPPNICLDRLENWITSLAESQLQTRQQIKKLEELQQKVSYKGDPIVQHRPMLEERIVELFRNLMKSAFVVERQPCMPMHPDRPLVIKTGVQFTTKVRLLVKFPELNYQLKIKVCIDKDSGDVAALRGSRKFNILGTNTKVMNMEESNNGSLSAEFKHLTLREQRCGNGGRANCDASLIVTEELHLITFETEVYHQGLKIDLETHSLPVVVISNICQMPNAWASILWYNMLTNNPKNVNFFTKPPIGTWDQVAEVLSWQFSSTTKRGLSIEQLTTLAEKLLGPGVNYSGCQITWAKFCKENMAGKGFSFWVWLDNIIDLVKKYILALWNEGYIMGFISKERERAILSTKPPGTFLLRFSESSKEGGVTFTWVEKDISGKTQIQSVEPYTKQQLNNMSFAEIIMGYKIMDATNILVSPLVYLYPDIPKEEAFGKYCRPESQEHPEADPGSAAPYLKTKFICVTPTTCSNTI

As for `O=C(N[C@H]1C[C@H]2[C@@H](C[C@H]3CC[C@@H](C(=O)N4CC(c5cccnc5)C4)N3C1=O)C2(F)F)c1cc2cc(C(F)(F)P(=O)(O)O)ccc2s1` [Compound 31, ((2-(((3S,6S,7aS,8aR,9aR)-8,8-difluoro-5-oxo-3-(3-(pyridin-3-yl)azetidine-1-carbonyl)decahydro-1H-cyclopropa[d]pyrrolo[1,2-a]azocin-6-yl)carbamoyl)benzo[b]thiophen-5-yl)difluoromethyl)phosphonic acid], the IC50 in experiment [1] is below 100 nM; in experiment [2], 3000 to 30000 nM.

Take `O=C(N[C@H]1C[C@@H]2C[C@@H]2C[C@H]2CC[C@@H](C(=O)Nc3ccc(-c4ccccc4)cc3)N2C1=O)c1cc2cc(C(F)(F)P(=O)(O)O)ccc2s1` [Compound 32, ((2-(((3S,6S,7aS,8aR,9aR)-3-([1,1′-biphenyl]-4-ylcarbamoyl)-5-oxodecahydro-1H-cyclopropa[d]pyrrolo[1,2-a]azocin-6-yl)carbamoyl)benzo[b]thiophen-5-yl)difluoromethyl)phosphonic acid]: the IC50 in experiment [1] is below 100 nM; in experiment [2], 300 to 3000 nM.

Take `CC(c1ccc2sc(C(=O)N[C@H]3C[C@@H]4C[C@@H]4C[C@H]4CC[C@@H](C(=O)N5CC(C(=O)N6CCOCC6)C5)N4C3=O)cc2c1)P(=O)(O)O` (stereo partly drawn) [Compound 35, (1-(2-(((3S,6S,7aS,8aR,9aR)-3-(3-(morpholine-4-carbonyl)azetidine-1-carbonyl)-5-oxodecahydro-1H-cyclopropa[d]pyrrolo[1,2-a]azocin-6-yl)carbamoyl)benzo[b]thiophen-5-yl)ethyl)phosphonic acid]: the IC50 in experiment [1] was 100 to 1000 nM; in experiment [2], above 30000 nM.

In the case of `O=C(N[C@H]1C[C@@H]2C[C@@H]2C[C@H]2CC[C@@H](C(=O)N3CC(c4cccnc4)C3)N2C1=O)c1cc2cc(C(F)(F)P(=O)(O)O)ccc2s1` [Compound 36, (difluoro(2-(((3S,6S,7aS,8aR,9aR)-5-oxo-3-(3-(pyridin-3-yl)azetidine-1-carbonyl)decahydro-1H-cyclopropa[d]pyrrolo[1,2-a]azocin-6-yl)carbamoyl)benzo[b]thiophen-5-yl)methyl)phosphonic acid], the values for the IC50 in experiment [1] and in experiment [2] were below 100 nM and 300 to 3000 nM, respectively.

For `C[C@]12CC(NC(=O)c3cc4cc(C(F)(F)P(=O)(O)O)ccc4s3)C(=O)N3[C@H](CC[C@H]3C(=O)N3CC(c4cccnc4)C3)[C@H]1C2` (stereo partly drawn) [Compound 37, (difluoro(2-(((3S,6S,7aS,8aR,9aR)-7a-methyl-5-oxo-3-(3-(pyridin-3-yl)azetidine-1-carbonyl)decahydro-1H-cyclopropa[d]pyrrolo[1,2-a]azocin-6-yl)carbamoyl)benzo[b]thiophen-5-yl)methyl)phosphonic acid], the values for the IC50 in experiment [1] and in experiment [2] were below 100 nM and 3000 to 30000 nM, respectively.

For `C[C@@]12C[C@H](NC(=O)c3cc4cc(C(F)(F)P(=O)(O)O)ccc4s3)C(=O)N3[C@H](CC[C@H]3C(=O)N3CC(c4cccnc4)C3)[C@@H]1C2` [Compound 38, (difluoro(2-(((3S,6S,7aR,8aS,9aR)-7a-methyl-5-oxo-3-(3-(pyridin-3-yl)azetidine-1-carbonyl)decahydro-1H-cyclopropa[d]pyrrolo[1,2-a]azocin-6-yl)carbamoyl)benzo[b]thiophen-5-yl)methyl)phosphonic acid], the IC50 in experiment [1] was in the range of 100 to 1000 nM; in experiment [2], 3000 to 30000 nM.

As for `O=C(N[C@H]1C[C@@H]2C[C@@H]2C[C@H]2CC[C@@H](C(=O)N[C@@H]3CCN(c4ccccn4)C3)N2C1=O)c1cc2cc(C(F)(F)P(=O)(O)O)ccc2s1` [Compound 39, (difluoro(2-(((3S,6S,7aS,8aR,9aR)-5-oxo-3-(((R)-1-(pyridin-2-yl)pyrrolidin-3-yl)carbamoyl)decahydro-1H-cyclopropa[d]pyrrolo[1,2-a]azocin-6-yl)carbamoyl)benzo[b]thiophen-5-yl)methyl)phosphonic acid], the IC50 in experiment [1] is below 100 nM; in experiment [2] it was 3000 to 30000 nM.

On to `CC(=O)N1CC2(C1)CN(C(=O)[C@@H]1CC[C@@H]3C[C@H]4C[C@H]4C[C@H](NC(=O)c4cc5cc(C(F)(F)P(=O)(O)O)ccc5s4)C(=O)N31)C2` [Compound 40, ((2-(((3S,6S,7aS,8aR,9aR)-3-(6-acetyl-2,6-diazaspiro[3.3]heptane-2-carbonyl)-5-oxodecahydro-1H-cyclopropa[d]pyrrolo[1,2-a]azocin-6-yl)carbamoyl)benzo[b]thiophen-5-yl)difluoromethyl)phosphonic acid], for which the IC50 is below 100 nM in experiment [1] and 300 to 3000 nM in experiment [2].

`O=C(N[C@H]1C[C@@H]2C[C@@H]2C[C@H]2CC[C@@H](C(=O)N3CC4(CN(C(=O)Cc5ccccc5)C4)C3)N2C1=O)c1cc2cc(C(F)(F)P(=O)(O)O)ccc2s1` [Compound 41, (difluoro(2-(((3S,6S,7aS,8aR,9aR)-5-oxo-3-(6-(2-phenylacetyl)-2,6-diazaspiro[3.3]heptane-2-carbonyl)decahydro-1H-cyclopropa[d]pyrrolo[1,2-a]azocin-6-yl)carbamoyl)benzo[b]thiophen-5-yl)methyl)phosphonic acid]: the IC50 in experiment [1] is below 100 nM; in experiment [2], 300 to 3000 nM.

In the case of `O=C(N[C@H]1C[C@@H]2C[C@@H]2C[C@H]2CC[C@@H](C(=O)N3CCN(C(=O)C4COC4)CC3)N2C1=O)c1cc2cc(C(F)(F)P(=O)(O)O)ccc2s1` [Compound 42, (difluoro(2-(((3S,6S,7aS,8aR,9aR)-3-(4-(oxetane-3-carbonyl)piperazine-1-carbonyl)-5-oxodecahydro-1H-cyclopropa[d]pyrrolo[12-a]azocin-6-yl)carbamoyl)benzo[b]thiophen-5-yl)methyl)phosphonic acid], the IC50 in experiment [1] fell in the range of 100 to 1000 nM; in experiment [2], 300 to 3000 nM.

Regarding `O=C(N[C@H]1C[C@@H]2C[C@@H]2C[C@H]2CC[C@@H](C(=O)N3CCN(C4COC4)CC3)N2C1=O)c1cc2cc(C(F)(F)P(=O)(O)O)ccc2s1` [Compound 43, (difluoro(2-(((3S,6S,7aS,8aR,9aR)-3-(4-(oxetan-3-yl)piperazine-1-carbonyl)-5-oxodecahydro-1H-cyclopropa[d]pyrrolo[1,2-a]azocin-6-yl)carbamoyl)benzo[b]thiophen-5-yl)methyl)phosphonic acid], the IC50 was 100 to 1000 nM in experiment [1] and 3000 to 30000 nM in experiment [2].

As for `O=C(N[C@H]1C[C@@H]2C[C@@H]2C[C@H]2CC[C@@H](C(=O)NC3CN(c4ccccn4)C3)N2C1=O)c1cc2cc(C(F)(F)P(=O)(O)O)ccc2s1` [Compound 44, (difluoro(2-(((3S,6S,7aS,8aR,9aR)-5-oxo-3-((1-(pyridin-2-yl)azetidin-3-yl)carbamoyl)decahydro-1H-cyclopropa[d]pyrrolo[1,2-a]azocin-6-yl)carbamoyl)benzo[b]thiophen-5-yl)methyl)phosphonic acid], the IC50 was below 100 nM in experiment [1] and 300 to 3000 nM in experiment [2].

As for `O=C(N[C@H]1C[C@@H]2C[C@@H]2C[C@H]2CC[C@@H](C(=O)N3CC(n4ccnc4)C3)N2C1=O)c1ccc2ccc(C(F)(F)P(=O)(O)O)cc2c1` [Compound 46, ((7-(((3S,6S,7aS,8aR,9aR)-3-(3-(1H-imidazol-1-yl)azetidine-1-carbonyl)-5-oxodecahydro-1H-cyclopropa[d]pyrrolo[1,2-a]azocin-6-yl)carbamoyl)naphthalen-2-yl)difluoromethyl)phosphonic acid], the concentration for half-maximal inhibition (IC50) is below 100 nM in experiment [1] and 300 to 3000 nM in experiment [2].

For the compound `O=C(N[C@H]1C[C@H]2C[C@H]2C[C@H]2CC[C@@H](C(=O)N[C@@H]3CCN(c4cccnc4)C3)N2C1=O)c1cc2cc(C(F)(F)P(=O)(O)O)ccc2s1` [Compound 47, (difluoro(2-(((3S,6S,7aR,8aS,9aR)-5-oxo-3-(((R)-1-(pyridin-3-yl)pyrrolidin-3-yl)carbamoyl)decahydro-1H-cyclopropa[d]pyrrolo[1,2-a]azocin-6-yl)carbamoyl)benzo[b]thiophen-5-yl)methyl)phosphonic acid], the figures for the IC50 in experiment [1] and in experiment [2] were below 100 nM and 300 to 3000 nM, respectively.

With `O=C(N[C@H]1C[C@@H]2C[C@@H]2C[C@H]2CC[C@@H](C(=O)N[C@@H]3CCN(C4COC4)C3)N2C1=O)c1cc2cc(C(F)(F)P(=O)(O)O)ccc2s1` [Compound 48, (difluoro(2-(((3S,6S,7aS,8aR,9aR)-3-(((R)-1-(oxetan-3-yl)pyrrolidin-3-yl)carbamoyl)-5-oxodecahydro-1H-cyclopropa[d]pyrrolo[1,2-a]azocin-6-yl)carbamoyl)benzo[b]thiophen-5-yl)methyl)phosphonic acid], the IC50 lay in the range of 100 to 1000 nM in experiment [1] and 3000 to 30000 nM in experiment [2].

The term IC50 denotes the concentration that gives 50% inhibition.
